Reference: patent US20090326031A1, “ANTIVIRAL USE OF CATIONIC SURFACTANT” (priority 2006, published 2009)

What was measured:
metabolism in rats = format: in vivo; conditions: eventually excreted as carbon dioxide and urea
Vaccinia virus = format: cell-based; conditions: LAE 200 ppm
[1] = system: Clostridium perfringens ATCC 77454; format: cell-based; conditions: Gram + Bacteria
[2] = system: parainfluenza bovine type 3 strain SF-4 (ATCC VR-281); experiment: activity of LAE against bovine parainfluenzae 3 virus (virus suspension, TCID50); format: cell-based; conditions: LAE 200 ppm
Experimental: (§1) In the following experiments the reduction factor has been calculated.
(§2) This reduction factor is calculated according to the following formula
(§3) R′ presents the reduction factor, v′ represents the volume of the sample of the test compound, a′ is the virus concentration in the added sample (^10log value), v″ is the volume of the final sample, a″ is the virus concentration after treatment (^10log value).
(§4) In the following experiments the clearance factor has been calculated. The clearance factor is calculated according to the following formula: […]
(§5) CL is the elimination factor (clearance factor), q′ is the initial concentration of virus (^10log value), q″ is the final concentration of virus (^10log value).
Eagle minimum essential medium (EMEM) was obtained from Earle (ICN Flow, Rf. 11-100-24), was supplemented with
10% of fetal bovine serum (Biowhittaker, Ref. D14-810F), […] of glutamine (Biowhittaker, Ref. 17-605E), non-essential amino acids (Biowhittaker, Ref. 13-114E), 100 units of penicillin, 100 μg of streptomycin/ml and 1 mM of sodium pyruvate. LAE (CAS 60372-77-2) Lot No. 10234 with a LAE Content of 88.7%.
The investigated strain of the parainfluenza bovine type 3 was SF-4 (ATCC VR-281).
(§6) LAE was investigated at a concentration of 200 ppm.
All experiments were performed at room temperature.
8 ml of deionized water was mixed with 1 ml of the virus suspension. 1 ml of LAE solution (containing 2000 ppm of LAE) was added, leading to a final LAE concentration of 200 ppm.
After 5 and 60 minutes samples for determination were taken. The design of the experiment allowed for conclusions of the effectivity of LAE after contact times of 5 and 60 minutes.
The number of virus particles in the experiment were determined by the quantitative assay TCID50 (infectious dose of cultured tissue).

toxicological studies = format: in vivo; conditions: animals and humans
[3] = system: Penicillium funiculosum CECT 2914; experiment: minimum inhibitory concentration; format: cell-based; conditions: Fungi
Source text: (§7) This compound is remarkable for its inhibitory action over the proliferation of different microorganisms, such as bacteria, fungi and yeasts.

[4] = system: Penicillium chrysogenum CECT 2802; experiment: minimum inhibitory concentration; format: cell-based; conditions: Fungi
Source text: as §7

[5] = system: Gliocadium virens ATCC 4645; experiment: minimum inhibitory concentration; format: cell-based; conditions: Fungi
Source text: as §7

[6] = system: Pseudomonas aeruginosa ATCC 9027; experiment: minimum inhibitory concentration; format: cell-based; conditions: Gram − Bacteria
Source text: as §7

[7] = system: Bacillus cereus var mycoide ATCC 11778; experiment: minimum inhibitory concentration; format: cell-based; conditions: Gram + Bacteria
Source text: as §7

[8] = system: Proteus mirabilis CECT 170; experiment: minimum inhibitory concentration; format: cell-based; conditions: Gram − Bacteria
Source text: as §7

[9] = system: Bacillus subtilis ATCC 6633; experiment: minimum inhibitory concentration; format: cell-based; conditions: Gram + Bacteria
Source text: as §7

Escherichia coli 0157H7 = experiment: minimum inhibitory concentration; format: cell-based; conditions: Gram − Bacteria
Source text: as §7

[10] = system: Serratia marcenses CECT 274; experiment: minimum inhibitory concentration; format: cell-based; conditions: Gram − Bacteria
Source text: as §7

[11] = system: Enterobacter aerogenes CECT 689; experiment: minimum inhibitory concentration; format: cell-based; conditions: Gram − Bacteria
Source text: as §7

[12] = system: Staphylococcus aureus ATCC 6538; experiment: minimum inhibitory concentration; format: cell-based; conditions: Gram + Bacteria
Source text: as §7

[13] = system: Rhodotorula rubra CECT 1158; experiment: minimum inhibitory concentration; format: cell-based; conditions: Yeast
Source text: as §7

[14] = system: Listeria monocytogenes ATCC 7644; experiment: minimum inhibitory concentration; format: cell-based; conditions: Gram + Bacteria
Source text: as §7

[15] = system: Salmonella typhimurium ATCC16028; experiment: minimum inhibitory concentration; format: cell-based; conditions: Gram − Bacteria
Source text: as §7

[16] = system: Bordetella bronchiseptica ATCC 4617; experiment: minimum inhibitory concentration; format: cell-based; conditions: Gram − Bacteria
Source text: as §7

[17] = system: Mycobacterium phlei ATCC 41423; experiment: minimum inhibitory concentration; format: cell-based; conditions: Gram + Bacteria
Source text: as §7

[18] = system: Candida albicans ATCC 10231; experiment: minimum inhibitory concentration; format: cell-based; conditions: Yeast
Source text: as §7

[19] = system: Escherichia coli ATCC 8739; experiment: minimum inhibitory concentration; format: cell-based; conditions: Gram − Bacteria
Source text: as §7

[20] = system: Aureobasidium pullulans ATCC 9348; experiment: minimum inhibitory concentration; format: cell-based; conditions: Fungi
Source text: as §7

[21] = system: Aspergillus niger ATCC14604; experiment: minimum inhibitory concentration; format: cell-based; conditions: Fungi
Source text: as §7

[22] = system: Leuconostoc mesenteroides CETC 912; experiment: minimum inhibitory concentration; format: cell-based; conditions: Gram + Bacteria
Source text: as §7

[23] = system: Citrobacter freundii ATCC 22636; experiment: minimum inhibitory concentration; format: cell-based; conditions: Gram − Bacteria
Source text: as §7

[24] = system: Lactobacillus delbrueckii ssp lactis CECT 372; experiment: minimum inhibitory concentration; format: cell-based; conditions: Gram + Bacteria
Source text: as §7

[25] = system: Arthrobacter oxydans ATCC 8010; experiment: minimum inhibitory concentration; format: cell-based; conditions: Gram + Bacteria
Source text: as §7

[26] = system: Saccharomyces cerevisiae ATCC 9763; experiment: minimum inhibitory concentration; format: cell-based; conditions: Yeast
Source text: as §7

[27] = system: Klebsiella pneumoniae var pneumoniae CECT 178; experiment: minimum inhibitory concentration; format: cell-based; conditions: Gram − Bacteria
Source text: as §7

[28] = system: Chaetonium globosum ATCC 6205; experiment: minimum inhibitory concentration; format: cell-based; conditions: Fungi
Source text: as §7

[29] = system: Alcaligenes faecalis ATCC 8750; experiment: minimum inhibitory concentration; format: cell-based; conditions: Gram − Bacteria
Source text: as §7

[30] = system: Micrococcus luteus ATCC 9631; experiment: minimum inhibitory concentration; format: cell-based; conditions: Gram + Bacteria
Source text: as §7

Herpes virus type 1 = experiment: activity of LAE against Herpes virus type 1; format: cell-based, Herpes simplex virus; conditions: LAE 200 ppm
Experimental: as §1, §2, §3, §4, §5
The virus which was investigated was the type Simplex virus of the subfamily Alphaherpesvirinae in the family Herpesviridae.
The conditions for the determination are similarly chosen according to the ones of example 1.
as §6

**Q.** Which absorption and metabolism (metabolism in rats) does the source give for CCCCCCCCCCCC(=O)N[C@@H](CCCN=C(N)N)C(=O)OCC.Cl [LAE, ethyl ester of the lauramide of the arginine monohydrochloride] here?
**A.** fast absorption and metabolisation into naturally-occurring amino acids and the fatty acid lauric acid

**Q.** What about the “Virus concentration 60 min after addition of LAE” value (shortened to “Virus concentration 60 min”) (Vaccinia virus; 10log value, before addition 5.94 ± 0.34) of the same molecule?
**A.** 2.40

**Q.** What about the “living virus after treatment for 5 minutes” value (Vaccinia virus; 5 minutes) of the same molecule?
**A.** great reduction of the number of living microorganisms

**Q.** What about the Clearance factor (Vaccinia virus; 60 min contact, 10log values) of the same molecule?
**A.** 3.54 ± 0.34

**Q.** What about the Reduction factor (Vaccinia virus; 60 min contact, 10log values) of the same molecule?
**A.** 3.92 ± 0.36

**Q.** And the “living virus after treatment for 60 minutes” value (Vaccinia virus; 60 minutes)?
**A.** substantial decrease of the number of living Vaccinia virus organisms

**Q.** What about the M.I.C. [1] of the same molecule?
**A.** 16 ppm

**Q.** And the Clearance factor ([2]; 60 min contact, 10log values)?
**A.** ≧6.29 ± 0.32

**Q.** What about the Reduction factor ([2]; 60 min contact, 10log values) of the same molecule?
**A.** ≧6.46 ± 0.32

**Q.** What about the “remaining virus after treatment for 60 minutes” value ([2]; 60 minutes) of the same molecule?
**A.** no remaining virus organisms were detected

**Q.** And the “Virus concentration 60 min” value ([2]; room temperature, 10log value, TCID50, before addition 8.09 ± 0.33)?
**A.** ≦1.63

**Q.** And the toxicity (toxicological studies)?
**A.** completely harmless to animals and humans

**Q.** What about the M.I.C. [3] of the same molecule?
**A.** 16 ppm

**Q.** And the M.I.C. [4]?
**A.** 128 ppm

**Q.** What about the M.I.C. [5] of the same molecule?
**A.** 32 ppm

**Q.** And the M.I.C. [6]?
**A.** 64 ppm

**Q.** What about the M.I.C. [7] of the same molecule?
**A.** 32 ppm

**Q.** What about the M.I.C. [8] of the same molecule?
**A.** 32 ppm

**Q.** And the M.I.C. [9]?
**A.** 16 ppm

**Q.** What about the M.I.C. (Escherichia coli 0157H7) of the same molecule?
**A.** 20 ppm

**Q.** And the M.I.C. [10]?
**A.** 32 ppm

**Q.** And the M.I.C. [11]?
**A.** 32 ppm

**Q.** And the M.I.C. [12]?
**A.** 32 ppm

**Q.** What about the M.I.C. [13] of the same molecule?
**A.** 16 ppm

**Q.** And the M.I.C. [14]?
**A.** 10 ppm

**Q.** What about the M.I.C. [15] of the same molecule?
**A.** 32 ppm

**Q.** And the M.I.C. [16]?
**A.** 128 ppm

**Q.** And the M.I.C. [17]?
**A.** 2 ppm

**Q.** What about the M.I.C. [18] of the same molecule?
**A.** 16 ppm

**Q.** And the M.I.C. [19]?
**A.** 32 ppm

**Q.** What about the M.I.C. [20] of the same molecule?
**A.** 16 ppm

**Q.** What about the M.I.C. [21] of the same molecule?
**A.** 32 ppm

**Q.** And the M.I.C. [22]?
**A.** 32 ppm

**Q.** What about the M.I.C. [23] of the same molecule?
**A.** 64 ppm

**Q.** And the M.I.C. [24]?
**A.** 16 ppm

**Q.** What about the M.I.C. [25] of the same molecule?
**A.** 64 ppm

**Q.** And the M.I.C. [26]?
**A.** 32 ppm

**Q.** What about the M.I.C. [27] of the same molecule?
**A.** 32 ppm

**Q.** And the M.I.C. [28]?
**A.** 16 ppm

**Q.** What about the M.I.C. [29] of the same molecule?
**A.** 64 ppm

**Q.** And the M.I.C. [30]?
**A.** 128 ppm

**Q.** What about the “Virus concentration 60 min” value (Herpes virus type 1; 10log value, before addition 7.94 ± 0.37) of the same molecule?
**A.** ≦1.70

**Q.** And the Clearance factor (Herpes virus type 1; 60 min contact, 10log values)?
**A.** ≧6.24 ± 0.37

**Q.** What about the Reduction factor (Herpes virus type 1; 60 min contact, 10log values) of the same molecule?
**A.** ≧6.18 ± 0.36

**Q.** What about the “remaining virus after treatment for 60 minutes” value (Herpes virus type 1; 60 minutes) of the same molecule?
**A.** no remaining virus organisms were detected
